Test results published in US7109012B2, “Recombinant lysophosphatidic acid phosphatase” (Azwell Inc., priority 1998, dated 2006).

Legend:
Type in all cases: biochemical
[1] = molecular target: T1, Recombinant LPA Phosphatase (Homo sapiens, UniProt Q9NPH0); experiment: Determination reagent (Reagent a / Reagent b), coupled enzymatic phosphate assay, absorbance at 570 nm; conditions: 5 minutes after Reagent b; for whether assayed by the determination reagent (change in absorbance at 570 nm): 0.2 mmol/l sample, 37° C.
T1 construct: comprises a signal peptide consisting of 40 amino acid residues at N-terminal, and was a novel phosphatase having 421 amino acid residues; 6xHis; made in house; host or cells: E. coli JM109, vector pQE-30
T1 sequence (Q9NPH0 48-428 limits assumed): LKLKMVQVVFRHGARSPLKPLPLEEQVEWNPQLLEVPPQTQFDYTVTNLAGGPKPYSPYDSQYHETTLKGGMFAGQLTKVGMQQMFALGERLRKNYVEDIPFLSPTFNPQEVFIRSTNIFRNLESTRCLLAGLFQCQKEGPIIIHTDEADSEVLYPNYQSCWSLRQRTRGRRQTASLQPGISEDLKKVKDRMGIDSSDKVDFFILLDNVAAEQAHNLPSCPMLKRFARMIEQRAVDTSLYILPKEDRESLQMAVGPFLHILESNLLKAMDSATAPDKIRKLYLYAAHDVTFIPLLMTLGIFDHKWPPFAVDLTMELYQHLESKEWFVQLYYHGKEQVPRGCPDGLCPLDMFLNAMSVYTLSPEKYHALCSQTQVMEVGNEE
Protocol: The following determination reagents (Reagent a, Reagent b) were prepared.
Each of the various LPAs such as 1-palmitoyl-LPA, 1-stearoyl-LPA, 1-oleoyl-LPA, 2-oleoyl-LPA, 1-linoleoyl-LPA and 1-arachidonoyl-LPA was dissolved in physiological saline containing a surfactant, to prepare a 0.2 mmol/l sample. Two-hundred and forty microliters of Reagent a was added to 8 μl of the sample, and the mixture was reacted at 37° C. for 5 minutes. Thereafter, 80 μl of Reagent b was added thereto, and the mixture was further reacted at 37° C. for 5 minutes. The change in the absorbance at a wavelength of 570 nm for 5 minutes after adding Reagent b was determined using reagent blank as a control.
The absorbance dramatically increases after addition of reagent b, reaching a peak in several minutes. In addition, each of various phospholipids such as 1,2-dipalmitoylphosphatidic acid (1,2-dipalmitoyl-PA), 1-palmitoylphosphatidylethanolamine (1-palmitoyl-LPE), and 1-palmitoylphosphatidylcholine (1-palmitoyl-LPC) was dissolved in physiological saline containing a surfactant, to prepare a 0.2 mmol/l sample. The absorbance was determined by the same procedures.
Further, the change in the absorbance was determined by the same procedures for each of commercially available control sera, 0.2 mM 1-oleoyl-LPA, and one prepared by adding 1-oleoyl-LPA to the commercially available control serum so as to be 0.2 mM. The determination accuracy (%) of LPA was calculated from each of the obtained changes in the absorbance by the following equation: […]

bovine LPA phosphatase [2] = molecular target: T2, bovine LPA phosphatase (Bos taurus, UniProt A6H757); experiment: Substrate specificity, free phosphate quantified by molybdate/ascorbic acid absorbance at 795 nm; conditions: 37° C., 15 minutes, pH 7.5
T2 construct: from tissue; host or cells: bovine brain, cytosol fraction
T2 sequence (A6H757 33-429): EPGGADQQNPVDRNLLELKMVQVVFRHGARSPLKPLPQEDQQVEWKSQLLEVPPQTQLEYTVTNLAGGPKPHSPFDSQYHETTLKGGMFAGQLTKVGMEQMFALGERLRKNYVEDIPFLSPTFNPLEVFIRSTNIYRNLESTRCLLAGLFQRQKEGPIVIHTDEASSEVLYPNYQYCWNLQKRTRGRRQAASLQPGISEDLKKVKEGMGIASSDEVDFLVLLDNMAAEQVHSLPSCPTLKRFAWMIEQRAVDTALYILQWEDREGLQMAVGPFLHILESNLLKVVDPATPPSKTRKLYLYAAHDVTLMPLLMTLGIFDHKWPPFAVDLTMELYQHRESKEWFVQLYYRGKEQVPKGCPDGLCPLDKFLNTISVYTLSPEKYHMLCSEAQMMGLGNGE
Protocol: The activity for the LPA Phosphatase was determined in 50 μl of a reaction mixture [50 mM Tris-maleic acid (pH 7.5), 50 μM monooleoyl-[9,10-^3H]-lysophosphatidic acid (5×10^4 dpm), Triton™-X100 at 4-fold molar concentration of the substrate and enzymes at various concentrations]. The above mixture was incubated at 37° C. for 15 minutes, and the enzyme activity was determined by measuring the generated [^3H]monooleoylglycerol.
Each of the enzyme reaction solutions containing various substrates was reacted in the same manner as in Test Example 1, and 25 μl of perchloric acid was added to terminate the reaction. Seventy-five microliters of […], 25 μl of 10% ammonium molybdate and 50 μl of 10% ascorbic acid were further added thereto. The mixed solution was boiled at 95° C. for 5 minutes, and thereafter the absorbance at 795 nm was determined to quantify free phosphate.

bovine LPA phosphatase [3] = molecular target: T2, bovine LPA phosphatase; experiment: Hydrolysis of [3H]1-oleoyl-LPA evaluated by TLC; conditions: 5 nmol substrate, enzyme 0-150 ng
Protocol: The experiment for the specific activity and the reaction rate, and the like is performed by using the following separation method. Concretely, the above enzyme reaction product (50 μl of a mixture) was lyophilized, and monooleoylglycerol was added as a carrier. Thereafter, the mixture was analyzed by thin-layer chromatography (TLC) using a solvent system of n-butanol/acetic acid/water (30.4/4.8/4.8). The TLC plate was exposed to iodine steam, and spots of the monooleoylglycerol were scraped off, and the radioactivity was determined.
Next, in order to confirm the reactivity with 1-oleoyl-LPA in detail, the enzyme reaction was carried out in the same manner as in Test Example 2 using [^3H]1-oleoyl-LPA (5 nmol, 1×10^5 dpm) as a substrate, and evaluated by TLC (FIG. 6).

bovine LPA phosphatase [4] = molecular target: T2, bovine LPA phosphatase; experiment: Reactivity with [32P]LPA or [32P]PA, radioactivity of the aqueous layer; conditions: enzyme 0-175 ng, substrate 0-100 μM
Source text: FIG. 7 is a graph for evaluating the reactivity of bovine LPA phosphatase with [^32P]LPA or [^32P] PA, each being previously purified with TLC.
In order to further confirm in detail the reactivity when 1-oleoyl-LPA and dioleoyl-PA were used as substrates, [^32P]LPA and [^32P]PA were used as substrates, which had been labeled by using [γ-^32P]ATP and E. coli DG kinase [Waggoner, D. W. et al., (1996) J. Biol. Chem. 271, 16506–16509], and purified with TLC previously. Each of the reactions was carried out by varying the enzyme amount (0–175 ng), or varying the concentration of the substrate (0–100 μM). The enzyme reaction was terminated with 100 μl of 0.1 N hydrochloric acid in methanol solution, and 200 μl of chloroform and 1 M magnesium chloride were each added. The mixture was vigorously mixed, and thereafter centrifuged at 1,000×g for 5 minutes. The radioactivity of 175 μl of the aqueous layer was determined to evaluate the enzyme reaction (FIG. 7).

Molecule | hydrolysis by bovine LPA phosphatase (free phosphate) (bovine LPA phosphatase [2]) | also measured
CCCCCCCC/C=C\CCCCCCCC(=O)OC[C@@H](O)COP(=O)(O)O [1-oleoyl-LPA, 1-oleoyl-lysophosphatidic acid] | strongly hydrolyzed | Changes in Absorbance ([1]; 0.2 mmol/l, 570 nm): 0.0988
CCCCCCCCCCCCCCCC(=O)OC[C@@H](O)COP(=O)([O-])OCC[N+](C)(C)C [LPC, 1-palmitoylphosphatidylcholine] | – | whether assayed by the determination reagent (change in absorbance at 570 nm) [1]: cannot substantially be done
CCCCCCCCCCCCCCCC(=O)OC[C@H](COP(=O)(O)O)OC(=O)CCCCCCCCCCCCCCC [PA, 1,2-dipalmitoylphosphatidic acid] | – | whether assayed by the determination reagent (change in absorbance at 570 nm) [1]: cannot substantially be done
[3H]/C(CCCCCCCC)=C(\[3H])CCCCCCCC(=O)OC[C@@H](O)COP(=O)(O)O [[^3H]1-oleoyl-LPA, monooleoyl-[9,10-^3H]-lysophosphatidic acid] | – | hydrolysis to [3H]1-oleoylglycerol (TLC) (bovine LPA phosphatase [3]): hydrolyzed
O=P(O)(O)OCC(O)CO (stereo not drawn) [glycerol phosphate] | did not hydrolyze | –
CCCCCCCCCCCCC/C=C/[C@@H](O)[C@@H](N)COP(=O)(O)O [sphingosine 1-phosphate] | did not hydrolyze | –
Lysophosphatidic acid [LPA] | – | reactivity of bovine LPA phosphatase with 32P-labelled substrate (bovine LPA phosphatase [4]): extremely high reactivity
bisphosphatidic acid | did not hydrolyze | –
cardiolipin | did not hydrolyze | –
ceramide 1-phosphate | did not hydrolyze | –
phosphatidic acid | did not hydrolyze | –
